Legend:
[1] = Amiodarone quantification in tissues by LC/MS after pericardial repair with amiodarone-soaked EBM patch, or IV amiodarone control, ovine model; format: in vivo; settings: sheep
From the text: Specifically, EBM under the tradename CardiaMend™ was used. The device was approximately 1 mm thick (range 0.75-1.54 mm). An ovine model was used for a pericardial repair procedure. […] The EBM patch was then inserted through a hole cut through the pericardium via a mini-thoracotomy approach and secured with sutures at the margins of the pericardial defect. Following closure of the superficial muscle and skin, the animals were recovered, and housed until sacrifice at 3 days, 7 days, and 28 days. […] Following sacrifice, the repair site was explored, and the implant and heart were grossly evaluated for signs of inflammation, scarring, or fibrosis. Gross images were acquired.

[2] = as above; format: in vivo; settings: sheep, 1000 mg/day, Maximum IV delivery-positive control Average, 1,000 mg/day via IV for 14 days

SMILES: CCCCc1oc2ccccc2c1C(=O)c1cc(I)c(OCCN(CC)CC)c(I)c1 [Amiodarone, amiodarone]
- Amiodarone concentration, Myocardium, Day 3 Average ([1]; EBM 7 cm by 10 cm soaked in 6 mL of 50 mg/mL amiodarone hydrochloride, pericardial patch, myocardium, day 3): 63.50 µg/g
- Amiodarone concentration, Left Atrium, EBM drug delivery Day 3-7 Average ([1]; EBM drug delivery, local single dose, left atrium, day 3-7): 96 µg/g
- Amiodarone concentration, Liver, EBM drug delivery Day 3-7 Average ([1]; EBM drug delivery, local single dose, liver, day 3-7): 1 µg/g
- Amiodarone concentration, Lung, EBM drug delivery Day 3-7 Average ([1]; EBM drug delivery, local single dose, lung, day 3-7): 4 µg/g
- Amiodarone concentration, Right Atrium, EBM drug delivery Day 3-7 Average ([1]; EBM drug delivery, local single dose, right atrium, day 3-7): 83 µg/g
- Amiodarone concentration, Ventricles, EBM drug delivery Day 3-7 Average ([1]; EBM drug delivery, local single dose, ventricles, day 3-7): 14 µg/g
- Amiodarone concentration, Liver, Day 28 Average ([1]; amiodarone-soaked EBM pericardial patch, liver, day 28): below the limit of detection
- concentration at 14 day ([2]; left atrium): 19000 ng/g
- concentration at 14 day ([2]; liver): 8000 ng/g
- concentration at 14 day ([2]; lung): 27000 ng/g
- concentration at 14 day ([2]; right atrium): 33000 ng/g
- concentration at 14 day ([2]; ventricles): 9000 ng/g
